Data published in the Kinase Knowledgebase extract (Sharma et al. 2016).

Target: PIK3CB;PIK3CG;PIK3CD;PIK3CA (human) (UniProt P48736)
Experiment: Inhibition of PIK3CA/PIK3CB/PIK3CD/PIK3CG Kinase Activity

In order of rising IC50:
1. COCCN(C)c1cc(C(=O)O)nc2c(-c3cccc(CO)c3)nc(N3CCOCC3)nc12  8 nM
2. COCCN(C)c1cc(C(=O)O)nc2c(-c3cccc(F)c3O)nc(N3CCOCC3)nc12  9 nM
3. CN(CCO)c1cc(C(=O)O)nc2c(-c3cccc(F)c3O)nc(N3CCOCC3)nc12  10 nM
4. CS(=O)(=O)N1CCN(c2cc(C(=O)O)nc3c(-c4cccc(O)c4)nc(N4CCOCC4)nc23)CC1  15 nM
5. CS(=O)(=O)c1cc(C(=O)O)nc2c(-c3cc(O)cc(F)c3)nc(N3CCOCC3)nc12  15 nM
6. COCCNc1cc(C(=O)O)nc2c(-c3cccc(F)c3O)nc(N3CCOCC3)nc12  18 nM
7. COCCN(C)c1cc(C(=O)O)nc2c(-c3cc(O)cc(F)c3)nc(N3CCOCC3)nc12  19 nM
8. CN(C)c1cc(C(=O)O)nc2c(-c3ccccc3O)nc(N3CCOCC3)nc12  23 nM
9. COc1ccccc1-c1cc(C(=O)O)nc2c(-c3cccc(O)c3)nc(N3CCOCC3)nc12  24 nM
10. CS(=O)(=O)c1cc(C(=O)O)nc2c(-c3cccc(F)c3O)nc(N3CCOCC3)nc12  26 nM
11. O=C(O)c1cc(NCCO)c2nc(N3CCOCC3)nc(-c3cccc(CO)c3)c2n1  27 nM
12. COCCN(C)c1cc(C(=O)O)nc2c(-c3cccc(O)c3)nc(N3CCOCC3)nc12  28 nM
13. CS(=O)(=O)N1CCN(c2cc(C(=O)O)nc3c(-c4ccccc4)nc(N4CCOCC4)nc23)CC1  30 nM
14. CN(C)c1cc(C(=O)O)nc2c(-c3cccc(CO)c3)nc(N3CCOCC3)nc12  34 nM
15. O=C(O)c1cc(NCCO)c2nc(N3CCOCC3)nc(-c3cccc(F)c3O)c2n1  43 nM
16. CNc1cc(C(=O)O)nc2c(-c3cccc(F)c3O)nc(N3CCOCC3)nc12  48 nM
17. O=C(O)c1cc(-c2cccc3ccccc23)c2nc(N3CCOCC3)nc(-c3cccc(O)c3)c2n1  57 nM
18. COCCN(C)c1cc(C(=O)O)nc2c(-c3ccc(F)cc3O)nc(N3CCOCC3)nc12  62 nM
19. O=C(O)c1ccc2nc(N3CCOCC3)nc(-c3cccc(O)c3)c2n1  63 nM
20. O=C(O)c1cc(NCCO)c2nc(N3CCOCC3)nc(-c3cc(O)cc(F)c3)c2n1  64 nM
21. CN(C)c1cc(C(=O)O)nc2c(-c3cc(F)ccc3O)nc(N3CCOCC3)nc12  66 nM
22. COCCNc1cc(C(=O)O)nc2c(-c3cc(F)ccc3O)nc(N3CCOCC3)nc12  73 nM
23. CN(CCO)c1cc(C(=O)O)nc2c(-c3cccc(CO)c3)nc(N3CCOCC3)nc12  74 nM
24. O=C(O)c1cc(NCCO)c2nc(N3CCOCC3)nc(-c3cccc(O)c3)c2n1  75 nM
25. CN(CCO)c1cc(C(=O)O)nc2c(-c3cccc4[nH]ccc34)nc(N3CCOCC3)nc12  77 nM
26. CC(=O)N1CCN(c2cc(C(=O)O)nc3c(-c4cccc(O)c4)nc(N4CCOCC4)nc23)CC1  80 nM
27. O=C(O)c1cc(NCCO)c2nc(N3CCOCC3)nc(-c3ccccc3O)c2n1  82 nM
28. CN(C)c1cc(C(=O)O)nc2c(-c3ccc(F)cc3O)nc(N3CCOCC3)nc12  83 nM
29. COCCNc1cc(C(=O)O)nc2c(-c3ccc(F)cc3O)nc(N3CCOCC3)nc12  89 nM
30. COCCOc1cc(C(=O)O)nc2c(-c3cc(O)cc(F)c3)nc(N3CCOCC3)nc12  93 nM
31. O=C(O)c1cc(Cl)c2nc(N3CCOCC3)nc(-c3cccc(O)c3)c2n1  108 nM
32. COCCNc1cc(C(=O)O)nc2c(-c3cccc4[nH]ccc34)nc(N3CCOCC3)nc12  128 nM
33. CN(C)c1cc(C(=O)O)nc2c(-c3cccc4[nH]ccc34)nc(N3CCOCC3)nc12  132 nM
34. CN(C)CCN(C)c1cc(C(=O)O)nc2c(-c3cccc4[nH]ccc34)nc(N3CCOCC3)nc12  137 nM
35. CS(=O)(=O)c1cc(C(=O)O)nc2c(-c3cc(F)ccc3O)nc(N3CCOCC3)nc12  139 nM
36. CNc1cc(C(=O)O)nc2c(-c3cccc(O)c3)nc(N3CCOCC3)nc12  144 nM
37. COCCN(C)c1cc(C(=O)O)nc2c(-c3ccc4[nH]ccc4c3)nc(N3CCOCC3)nc12  169 nM
38. CN(CCO)c1cc(C(=O)O)nc2c(-c3ccc(F)cc3O)nc(N3CCOCC3)nc12  220 nM
39. Cc1cc(C(=O)O)nc2c(-c3cccc(O)c3)nc(N3CCOCC3)nc12  225 nM
40. COCCOc1cc(C(=O)O)nc2c(-c3cccc(O)c3)nc(N3CCOCC3)nc12  255 nM
41. COCCN(C)c1cc(C(=O)O)nc2c(-c3ccc(O)cc3)nc(N3CCOCC3)nc12  290 nM
42. CN(CCO)c1cc(C(=O)O)nc2c(-c3ccc(F)c(CO)c3)nc(N3CCOCC3)nc12  303 nM
43. CNc1cc(C(=O)O)nc2c(-c3cc(F)ccc3O)nc(N3CCOCC3)nc12  304 nM
44. CN(C)c1cc(C(=O)O)nc2c(-c3ccc(F)c(CO)c3)nc(N3CCOCC3)nc12  329 nM
45. CS(=O)(=O)c1cc(C(=O)O)nc2c(-c3ccc(O)c(F)c3)nc(N3CCOCC3)nc12  335 nM
46. COCCNc1cc(C(=O)O)nc2c(-c3ccc(CO)cc3)nc(N3CCOCC3)nc12  346 nM
47. CN(C)c1cc(C(=O)O)nc2c(-c3ccc(O)cc3)nc(N3CCOCC3)nc12  350 nM
48. CNc1cc(C(=O)O)nc2c(-c3ccc(F)cc3O)nc(N3CCOCC3)nc12  412 nM
49. CN(C)CCN(C)c1cc(C(=O)O)nc2c(-c3ccccc3O)nc(N3CCOCC3)nc12  459 nM
50. COCCNc1cc(C(=O)O)nc2c(-c3ccc(O)cc3)nc(N3CCOCC3)nc12  504 nM
51. COCCN(C)c1cc(C(=O)O)nc2c(-c3ccc(CO)cc3)nc(N3CCOCC3)nc12  546 nM
52. CN(C)CCN(C)c1cc(C(=O)O)nc2c(-c3cc(F)ccc3O)nc(N3CCOCC3)nc12  564 nM
53. O=C(O)c1cc(Cl)c2nc(N3CCOCC3)nc(-c3ccccc3)c2n1  678 nM
54. O=C(O)c1cc(NCCO)c2nc(N3CCOCC3)nc(-c3ccc(O)cc3)c2n1  732 nM
55. CNc1cc(C(=O)O)nc2c(-c3cccc4[nH]ccc34)nc(N3CCOCC3)nc12  780 nM
56. O=C(O)c1ccc2nc(N3CCOCC3)nc(-c3ccc(O)cc3)c2n1  855 nM
57. Cc1cc(O)ccc1-c1nc(N2CCOCC2)nc2c(N(C)CCO)cc(C(=O)O)nc12  936 nM
58. COc1cccc(-c2nc(N3CCOCC3)nc3c(Cl)cc(C(=O)O)nc23)c1  1080 nM
59. CN(C)c1cc(C(=O)O)nc2c(-c3cccc(C#N)c3)nc(N3CCOCC3)nc12  1100 nM
60. COCCN(C)c1cc(C(=O)O)nc2c(-c3cc(F)cc(F)c3)nc(N3CCOCC3)nc12  1290 nM
61. COCCNc1cc(C(=O)O)nc2c(-c3cccc(COC)c3)nc(N3CCOCC3)nc12  1830 nM
62. COCc1cccc(-c2nc(N3CCOCC3)nc3c(N(C)CCO)cc(C(=O)O)nc23)c1  1850 nM
63. COCc1cccc(-c2nc(N3CCOCC3)nc3c(NCCO)cc(C(=O)O)nc23)c1  2490 nM
64. COCCOc1cc(C(=O)O)nc2c(-c3ccc(O)cc3)nc(N3CCOCC3)nc12  2520 nM
65. COc1cccc(-c2nc(N3CCOCC3)nc3ccc(C(=O)O)nc23)c1  4490 nM
66. COCc1cccc(-c2nc(N3CCOCC3)nc3c(N(C)C)cc(C(=O)O)nc23)c1  5050 nM
